Results: patent US9107894B2, “Formulation to improve gastrointestinal function” (University of Florida Research Foundation, Inc., priority 2007, dated 2015)

Tests used:
Caco-2 cells = assay: Poly (I:C) induced IL-8 production in differentiated Caco-2 cells (ELISA); assay type: cell-based, human
Protocol: In order to determine whether DHA has an effect on inducers of inflammation other than TNFα, stimulation of another Toll-like receptor was evaluated. Polyriboinosinic polyribocytidylic acid [poly(I:C)] is a synthetic double-stranded RNA that is used experimentally to model viral infections. It has recently been identified as one of the critical stimuli for toll like receptor 3 (TLR3). The effects of n-3 PUFA on viral induced inflammation in intestinal epithelia have not been reported.
Docosahexaenoic acid (DHA, 22:6 n-3) was used as n-3 PUFA and linoleic acid (LA, 18:2 n-6) as n-6 PUFA. Differentiated Caco-2 cells were pretreated with various doses of DHA or LA for 24 hours. The cells were then treated with poly (I: C) 50 ug/ml for another 24 hours. The culture medium was collected to measure the IL-8 production by ELISA. The first experiment determined the effect of Poly (I: C) on stimulation of IL-8, a major pro-inflammatory chemokine. Poly (I:C) increased IL-8 production by 10 fold.

CINC peptide = CINC peptide in gastrostomy fed (pup-in-a-cup), LPS treated rat pups; assay type: in vivo; conditions: for decrease of intestinal CINC peptide: intestine
Source text: Using the “pup-in-a-cup” rat model, protein deprivation and supplementation with GLN or GLU in the developing rat small intestine were examined. Four groups of 6-7 d old pups were fed via a gastrostomy tube providing 100% or 25% protein (relative to mother fed rats) rat milk substitute (RMS) with and without additional GLN or glutamate (GLU) for 6 d. Pups receiving the 100% protein RMS experienced better growth than the 3 groups of pups receiving the 25% protein RMS+/−GLN/GLU supplementation.
(§1) Cytokine induced neutrophil chemoattractant (CINC) is a rodent chemokine that performs neutrophil chemoattractant functions similar to IL-8 in the human. Large quantities of this proinflammatory mediator can be detrimental.
Intestinal CINC peptide in the LPS treated pups provided 100% and 25% protein was elevated about 13 fold compared to the mother reared pups. GLN and GlU decreased intestinal CINC peptide by 73 and 80%, respectively.

CINC mRNA = CINC mRNA in small intestine by RT-PCR, protein deprived LPS treated rat pups; assay type: in vivo; conditions: 25% protein-fed, densitometry
Protocol: as §1, with “detrimental. […] To clarify the effects of diets on the CINC mRNA in small intestine, RT-PCR was performed.” for “detrimental.”

myeloperoxidase (MPO) = assay: Intestinal myeloperoxidase activity in gastrostomy fed, LPS treated rats; assay type: in vivo, rat
Source text: An approximate 6-fold elevation of intestinal myeloperoxidase (MPO) activity in the gastrostomy fed, LPS treated rats was decreased by GLN and Glu by 92% and 54%, respectively.

[1] = system: developing rat small intestine; assay: Pup-in-a-cup rat model: growth, villus size and tight junction proteins under protein deprivation; assay type: in vivo; conditions: for villus height and area: 6-7 d old pups fed rat milk substitute for 6 d; for growth of pups: 6-7 d old pups fed rat milk substitute via gastrostomy tube for 6 d
Source text: Using the “pup-in-a-cup” rat model, protein deprivation and supplementation with GLN or GLU in the developing rat small intestine were examined. Four groups of 6-7 d old pups were fed via a gastrostomy tube providing 100% or 25% protein (relative to mother fed rats) rat milk substitute (RMS) with and without additional GLN or glutamate (GLU) for 6 d. […] Villus size is a major component of absorptive capability. […] The tight junction proteins play an integral role in paracellular permeability of the intestinal barrier, and two of these, claudin and occludin were evaluated using Western blotting.

IEC-6 = assay: Proliferation of rat intestinal crypt cells (IEC-6) in the absence of GLN; assay type: cell-based; conditions: GLN synthetase inhibited cells, all treatment doses
Protocol: Studies were conducted to evaluate whether glutamate, a mixture of nucleotide monophosphates, arginine, or glucosamine could support proliferation of rat intestinal crypt cells (IEC-6) in the absence of GLN.

H4 cells = assay: TNFα-induced IL-8 production in H4 cells; assay type: cell-based, human; conditions: H4, 24 h pretreatment, TNF-α 1 μg/L for 24 h
Protocol: EPA and DHA were used as n-3 PUFA and linoleic acid (LA, 18:2 n-6) as n-6 PUFA. The H4 and Caco-2 cells were pretreated with different doses of EPA, DHA and LA separately and in different combinations for 24 hours. Then TNF-α (1 μg/L for H4, 50 μg/L for Caco-2 cells) was added to cell culture medium and the cells were incubated for another 24 hours. The lower dose used in the H4 cell line reflects their exquisite sensitivity to inflammatory stimuli.
The effects of different doses of fatty acids on TNFα-induced IL-8 production were evaluated and are seen in FIGS. 2A-B.

BBDP rats = assay: Mortality due to diabetes in BBDP rats; assay type: in vivo, rat

In the case of `CC/C=C\C/C=C\C/C=C\C/C=C\C/C=C\C/C=C\CCC(=O)O` [DHA, docosahexaenoic acid], the “decrease of poly (I:C)-induced IL-8 production” value (Caco-2 cells; 100 μM, 24 h pretreatment, poly (I:C) 50 ug/ml 24 h) is reported as 75%.

In the case of `NC(=O)CC[C@H](N)C(=O)O` [GLN, glutamine], the “decrease of intestinal CINC peptide” value (CINC peptide) is reported as 73%, the “plasma CINC peptide” value (CINC peptide) is reported as “decreased plasma CINC peptide” and the “CINC mRNA expression in small intestine” value (CINC mRNA) is reported as “decreased CINC mRNA to a level similar to mother-fed animals”. The “decrease of intestinal myeloperoxidase (MPO) activity” value (myeloperoxidase (MPO)) was 92%, the “villus height and area” value [1] was “did not differ” and the growth of pups [1] was “neither GLN nor GLU alone can rescue the effects of protein deprivation”.

For `N[C@@H](CCC(=O)O)C(=O)O` [Glu, glutamate], the “decrease of intestinal CINC peptide” value (CINC peptide) was 80%, the “plasma CINC peptide” value (CINC peptide) was “but not Glu decreased plasma CINC peptide” and the “CINC mRNA expression in small intestine” value (CINC mRNA) was “did not show the same effect as GLN”. For the same molecule, the “decrease of intestinal myeloperoxidase (MPO) activity” value (myeloperoxidase (MPO)) was 54%, the “villus height and area” value [1] was “did not differ” and the growth of pups [1] was “neither GLN nor GLU alone can rescue the effects of protein deprivation”. The proliferation (IEC-6) was “decrease in proliferation compared with cells treated with GLN”.

With `CCCCC/C=C\C/C=C\CCCCCCCC(=O)O` [LA, linoleic acid] the “effect on TNF-α induced IL-8 production” value (H4 cells) was “greater inflammatory effects on IL-8 production in H4 than in Caco-2 cells” and the “poly (I:C)-induced IL-8 production” value (Caco-2 cells; doses of 50 and 100 μM, 24 h pretreatment) was “did not significantly reduce IL-8 production”.

For `CCCC(=O)[O-].[Na+]` [NaB], the “mortality due to diabetes” value (BBDP rats) was “decrease mortality due to diabetes”.

With `N=C(N)NCCC[C@H](N)C(=O)O` [arginine] the proliferation (IEC-6) was “decrease in proliferation compared with cells treated with GLN”.

For `N[C@H]1C(O)O[C@H](CO)[C@@H](O)[C@@H]1O` (some centres unmarked) [glucosamine], the proliferation (IEC-6) was “decrease in proliferation compared with cells treated with GLN”.

In the case of “Polyriboinosinic polyribocytidylic acid [Poly (I:C)]”, the “increase of IL-8 production” value (Caco-2 cells; poly (I:C) 50 ug/ml, 24 hours) is reported as 10 fold.
